Laboratory results as given in US20140227174A1, “SKIN PERMEATING AND CELL ENTERING (SPACE) PEPTIDES AND METHODS OF USE THEREFOR” (CONVOY THERAPEUTICS, priority 2013, published 2014).
Blank lines part the entries; values can stand above or below the compound they belong to. Residues, ends and D or L forms follow the SMILES beside them.

Assays:
Assay type in all cases: in vitro ADME
[1] = test system: EPIDERM™ tissue; assay: Penetration of SPACE Peptide formulations across EPIDERM tissue; conditions: 100 μl on 2 cm^2, 24 hours
Experimental: Additional experiments performed using EPIDERM™ tissue confirmed penetration of SPACE Peptide across the skin. For this purpose, the SPACE Peptide formulations were prepared using the methods described herein above. EPIDERM™ tissues were obtained from MatTek Corporation (Ashland, Mass.). […] A 100 microliter formulation applied on EPIDERM™ tissue for 24 hours was determined to deliver 25% of SPACE Peptide across EPIDERM™ tissue.
FIG. 8C is a bar graph showing delivery of a fluorescent label to EPIDERM™ (left column of each pair) and a pig skin model (right column of each pair) using different formulations the contain SPACE Peptides. A 100 μl sample of various formulations was placed on a 2 cm^2 skin sample and penetration was tested 24 hours after application.

[2] = test system: epidermis and dermis from porcine skin; assay: Partitioning of SPACE Peptide into isolated epidermis and dermis; conditions: ratio of concentrations in skin layer and surrounding PBS; aqueous solution of SPACE Peptide; after 24 hours
Experimental: FIG. 5 is a schematic representation of the measurement of partitioning of SPACE peptide. FITC-SPACE peptide was incubated epidermis-SC and dermis for […] at 37° C. and the amount of SPACE peptide partitioned into the tissue was measured.
In these experiments, epidermis and dermis from porcine skin were isolated and placed in separate vials in an aqueous solution of SPACE Peptide of SEQ ID NO: 13. The amount of SPACE Peptide that partitioned into each skin layer was measured after 24 hours. The ratio of concentrations in skin layers and surrounding PBS was used to determine the partition coefficient.

[3] = test system: Full thickness pig skin
Experimental: Full thickness pig skin (Lampire Biological Laboratories, Pipersville, Pa.) was used. The skin was stored at −80° C. and defrosted immediately prior to use. Briefly, the skin was allowed to thaw with the stratum corneum (SC) side up left open to the atmosphere. Skin disks of 36 mm were punched out. The subcutaneous fatty tissue was carefully removed from the dermis, and the hair shaft was clipped to no more than 4 mm. The skin pieces were cleaned with PBS (pH 7.4). Subsequently, the integrity of the skin disks were checked with a skin conductivity measurement to ensure that samples were free from any surface irregularity such as tiny holes or crevices in the portion that was used for skin penetration and deposition studies.
In vitro skin penetration and deposition experiments of different liposomal systems containing a SPACE Peptide labeled with fluorescein isothiocyanate (FITC-SPACE), CsA, or fluorescent hyaluronidase (Fluorescein-HA) were run in Franz diffusion cells occlusively and maintained at 37±1° C. throughout experiments using an oven. The effective penetration area and receptor cell volume were 1.77 cm^2 and 12.0 ml, respectively. The acceptor compartment was filled with PBS pH 7.4 as the receptor medium. Each test formulation was investigated in triplicate. Skin disks were mounted with the SC side up and the donor compartment left dry and open to atmosphere for 0.5 hour before test formulation application. Caution was taken to remove all air bubbles between the underside of the skin (dermis) and the acceptor solution. The skin was stretched in all directions to avoid the presence of furrows.
100-200 μL of the test formulation was applied to skin surface using a pipette. The experiments were carried out under occlusion with light protection. The incubation time of the skin with each test formulation was 24 hours. At the end of an experiment, a sample of 1-3 mL was withdrawn from the receptor phase for concentration measurement by fluorescence assay using a micro-plate reader (SAFIRE, XFLUOR4, V4.50, Tecan Group Ltd, NY, United States of America) for fluorescence. In the case of CsA experiments, a sample of 3 ml was withdrawn from the receptor phase for ^3H-CsA measurement by a liquid scintillation counter (TRI-GARB 2100TR, Packard Instrument Company, Downers Grove, Ill.). The formulations were removed from the skin by washing five times with PBS (pH 7.4). After cleaning, the skin was transferred onto a device for tape-stripping the SC.
The stratum corneum was removed by striping with an adhesive tape (SCOTCH® Transparent Tape, 3M Corporate, St. Paul, Minn.). In order to avoid any furrows, which could be a reason for false results of the stripping procedure, the skin was stretched and mounted on cork discs as mentioned previously. The skin was covered with a TEFLON® mask with a central hole of 15 mm in diameter. Adhesive tape was put onto the skin and a weight of 2 kg was placed on the tape for 10 seconds. The tape was rapidly removed with forceps and transferred into a glass vial of suitable size. Ten stripping procedures were performed consecutively. For analytical reasons, the stripped tapes were collected in glass vials according the following scheme: vial 1=strip 1st, vial 2=strip 2nd-5th, and vial 3=strip 6th-10th. After tape-stripping, the epidermis sheet was separated from the dermis with a sterile surgical scalpel and cut into small pieces and collected into a glass vial. […]

[4] = test system: Full thickness pig skin; assay: In vitro delivery of siRNA to skin in Franz diffusion cells; conditions: 100 microliters of 25 nmole/ml; area of 2 sq. cm; 24 hours
Experimental: Full thickness pig skin (Lampire Biological Laboratories, Pipersville, Pa.) was used. The skin was stored at −80° C. and defrosted immediately prior to use. Briefly, the skin was allowed to thaw with the stratum corneum side up left open to the atmosphere for at least half hour. Skin disks of 36 mm were punched out. The subcutaneous fatty tissue was carefully removed from the dermis, and the hair shaft was cut off to no more than 4 mm. The skin piece was cleaned with PBS (pH 7.4). […]
In vitro skin penetration and deposition experiments of different formulations were run in Franz diffusion cells occlusively and maintained at 37±1° C. throughout the experiments. […] At the end of an experiment, a sample of 1 ml was withdrawn from the receptor phase for concentration measurement by fluorescence assay using a micro-plate reader (SAFIRE, XFLUOR4, V4.50, Tecan Group Ltd, NY, US). […]
The stratum corneum was removed by striping with an adhesive tape (SCOTCH® Transparent Tape, 3M Corporate, St. Paul, Minn.). […] The supernatant were withdrawn, diluted if necessary and analyzed by fluorescence measurement.
The concentrations of FAM-GAPDH-siRNA and FAM-GAPDH-siRNA-SPACE-Peptide conjugates were determined by fluorescence spectroscopy. Fluorescence detection was performed at an excitation of 495 nm and an emission of 525 nm for both conjugates. […]

penetration into EPIDERM tissue (FIG. 8C) [1]: penetrated into the EPIDERM™ tissue
Compound: C[C@H](NC(=O)CCCCCNC(=S)Nc1ccc2c(c1)C(=O)OC21c2ccc(O)cc2Oc2cc(O)ccc21)C(=O)N[C@H]1CSSC[C@@H](C(=O)NCC(=O)O)NC(=O)[C@H](CCC(N)=O)NC(=O)[C@H](Cc2c[nH]cn2)NC(=O)[C@H](CCC(N)=O)NC(=O)[C@H]([C@@H](C)O)NC(=O)[C@H](CO)NC(=O)CNC(=O)[C@H]([C@@H](C)O)NC1=O [FITC-SPACE] (HELM PEPTIDE1{[O=C1OC2(c3ccc(O)cc3Oc3cc(O)ccc32)c2ccc(NC(=S)[*:2])cc21].[O=C(CCCCCN[*:1])[*:2]].A.C.T.G.S.T.Q.H.Q.C.G}$PEPTIDE1,PEPTIDE1,4:R3-12:R3$$$V2.0; C-terminus assumed)

partition coefficient in the dermis [2]: 4.3
partition coefficient in the epidermis [2]: 9.8
Compound: C[C@H](N)C(=O)N[C@H]1CSSC[C@@H](C(=O)NCC(=O)O)NC(=O)[C@H](CCC(N)=O)NC(=O)[C@H](Cc2c[nH]cn2)NC(=O)[C@H](CCC(N)=O)NC(=O)[C@H]([C@@H](C)O)NC(=O)[C@H](CO)NC(=O)CNC(=O)[C@H]([C@@H](C)O)NC1=O [SPACE Peptide] (HELM PEPTIDE1{A.C.T.G.S.T.Q.H.Q.C.G}$PEPTIDE1,PEPTIDE1,2:R3-10:R3$$$V2.0; N-terminus and C-terminus assumed)
penetration of FITC label into skin layers (summary of FIG. 8B) [3]: enhanced penetration of FITC-SPACE Peptide formulations

HA delivery in the epidermis [3]: less than 0.5 microgram per sq. cm
HA delivery, formulation made at pH 8 versus otherwise identical formulation at pH 4 [3]: delivered less HA
amount of HA in the skin compared with the receiver compartment [3]: significantly higher
topically-applied HA penetrating into skin [3]: about 17%
Compound: Hyaluronic acid [HA]

penetration of siRNA into skin (applied dose) [4]: 3.3%
Compound: 5′-FAM-GACGUAAACGGCCACAAGUUC-3′ [siRNA aqueous solution]
